Measured values: patent US20080112992A1, “METHOD FOR CONTROLLING THE APPLICATION OF AN INSECTICIDE AND COMPOSITION THEREOF” (FLIT.S.A., priority 2001, published 2008)

Experiment: Colour change time after spraying on surfaces and drying in air
Format: physicochemical
Method: This composition of a pH of about 7.0 and of a yellow colour was applied by spraying to various kinds of surfaces, such as wood, painted wood, painted walls, ceramic tile, plastic (polyethylene), glass and stainless steel.
After about 40 minutes of exposure to air (including carbon dioxide), the composition was dried and the yellow colour disappeared.
Other levels of 4-nitrophenol were tested, and it was shown that with 0.05 wt % the yellow colour was somewhat faint but with a shorter colour changing time (about 25 min.), whereas with highest content, i.e. 0.5 resp. 1.0%, the colour change takes more time, i.e. 70 resp. 120 min.
Phenolphthalein was also tested at levels of 0.01 to 1.0 wt %, which all gave acceptable results and a colour change of about 40 min. The pH of the composition was initially adjusted to 9.4 using triethanolamine.

Row | Compound | colour changing time (0.05 wt % 4-nitrophenol in the composition, yellow colour somewhat faint) | colour change time (0.5 % 4-nitrophenol in the composition) [min] | colour change time (1.0 % 4-nitrophenol in the composition) [min] | colour change time (phenolphthalein at 0.01 to 1.0 wt %, pH initially adjusted to 9.4 using triethanolamine)
1 | O=[N+]([O-])c1ccc(O)cc1 [4-nitrophenol] | about 25 min. | 70 | 120 | 
2 | O=C1OC(c2ccc(O)cc2)(c2ccc(O)cc2)c2ccccc21 [Phenolphthalein, phenolphthalein] |  |  |  | about 40 min.
